We go through two compounds from paper PMC7472354, “Enhanced Antimicrobial Activity of N-Terminal Derivatives of a Novel Brevinin-1 Peptide from The Skin Secretion of Odorrana schmackeri” (Toxins, 2020).

In data set [1] the test system is Methicillin-resistant Staphylococcus aureus (MRSA, ATCC 12493). The class given is cell-based. The conditions noted are these: for MBC: ATCC 12493, 18 h; for MIC: ATCC 12493, 24 h. As to the method: (§1) The minimal inhibitory concentrations (MICs) and minimum bactericidal concentrations (MBCs) were evaluated to determine the antimicrobial activity of synthetic peptides. The microorganisms employed in the study are two kinds of Gram-negative bacteria, Escherichia coli (NCTC 10418) and Pseudomonas aeruginosa (ATCC 27853), three kinds of Gram-positive bacteria, Staphylococcus aureus (NCTC 10788), Methicillin-resistant Staphylococcus aureus (MRSA, ATCC 12493) and Enterococcus faecalis (NCTC 12697) and a yeast, Candida albicans (NCPF 1467), as indicated previously. […] The sterilised broth medium was used as the positive control and the microorganism cultured in the medium only was treated as the negative control. […] The MBC results were defined as the lowest bactericidal concentrations of peptide. The antimicrobial activity of peptides was tested by monitoring the absorbance at 550 nm using an ELISA plate reader (Biolise BioTek EL808, Winooski, VT, USA).

Data set [2] has as its system Enterococcus faecalis (NCTC 12697). The format is cell-based. The conditions noted are these: for MBC: NCTC 12697, 18 h; for MIC: NCTC 12697, 24 h. The procedure: as §1
Data set [3] concerns Candida albicans (NCPF 1467). The format is cell-based. The settings on record: for MBC: NCPF 1467, 18 h; for MIC: NCPF 1467, 24 h. The procedure: as §1
Data set [4] relates to Escherichia coli (NCTC 10418). The class given is cell-based. The conditions noted are these: for MBC: NCTC 10418, 18 h; for MIC: NCTC 10418, 24 h. The procedure: as §1
Data set [5] has as its system Staphylococcus aureus (NCTC 10788). The class given is cell-based. The settings on record: for MBC: NCTC 10788, 18 h; for MIC: NCTC 10788, 24 h. The procedure:
as §1

In data set [6] the test system is Pseudomonas aeruginosa (ATCC 27853). The format is cell-based. The settings on record: for MBC: ATCC 27853, 18 h; for MIC: ATCC 27853, 24 h. The procedure:
as §1

A further data set deals with horse red blood cells. Nature of the data set: Haemolysis assay and therapeutic index. The settings on record: 2% horse red blood cells in PBS, 2 h, 37 °C, absorbance 570 nm; best-fitted curve.

Converted amounts (≈) assume the structure as drawn. Where a SMILES comes first, the peptide text is derived from it.

Description for horse red blood cells: The haemolytic activity of synthetic peptides was determined using the horse red blood cells that were extracted from the de-fibroblast whole horse blood (TCS Biosciences Ltd. Buckingham, UK). […] Briefly, the red blood cells were harvested and washed using PBS until all broken red blood cells were removed. Then, a 2% cell suspension was prepared using PBS. The peptide concentrations were set as antimicrobial activity assay and mixed with the red blood cells in the microcentrifuge tubes. After a 2 h-incubation at 37 °C, the tubes were centrifuged and the suspension was transferred into a clear 96 well plate. The absorbance of released haemoglobin in the suspension was detected at 570 nm by a plate reader. Besides, the red blood cells treated with PBS and 1% Triton X-100 were used as the negative and positive controls, respectively. […] The therapeutic index (TI) was further determined as below:(1) TI=HC50/product of n MICsn,

By MIC is commonly meant the smallest concentration in the dilution series that meets the test's criterion for growth inhibition. Low values mean a more susceptible organism, high ones a less susceptible organism. `CC[C@H](C)[C@H](NC(=O)CNC(=O)[C@@H]1CCCN1C(=O)[C@H](CC(C)C)NC(=O)[C@@H](N)Cc1ccccc1)C(=O)N[C@@H](CC(C)C)C(=O)N[C@@H](CCCCN)C(=O)N[C@H](C(=O)N[C@@H](C)C(=O)N[C@@H](C)C(=O)N[C@@H](CCCCN)C(N)=O)C(C)C` [OSb] (H-FLPGILKVAAK-NH2): the MBC in data set [1], in data set [2], in data set [3], in data set [4], in data set [5] and in data set [6] was over 512 µM in each case. The MIC was over 512 µM in data set [1]; over 512 µM in data set [2]; 512 µM (≈ 592 µg/mL) in data set [3]; over 512 µM in data set [4]; 256 µM (≈ 296 µg/mL) in data set [5]; over 512 µM in data set [6]. Moreover, the “HC50 (concentration causing 50% haemolysis of the red blood cells)” value in the data set on horse red blood cells is 381.4 µM.
Turning to `CC[C@H](C)[C@H](NC(=O)[C@H](CCCCN)NC(=O)[C@@H]1CCCN1C(=O)[C@H](CC(C)C)NC(=O)[C@@H](N)Cc1ccccc1)C(=O)N[C@@H](CC(C)C)C(=O)N[C@@H](CCCCN)C(=O)N[C@H](C(=O)N[C@@H](C)C(=O)N[C@@H](C)C(=O)N[C@@H](CCCCN)C(N)=O)C(C)C` [OSc] (H-FLPKILKVAAK-NH2), the MBC in data set [1], in data set [2], in data set [3], in data set [4], in data set [5] and in data set [6] was over 512 µM each time. Further, the MIC is over 512 µM in data set [1]; over 512 µM in data set [2]; 256 µM (≈ 314 µg/mL) in data set [3]; over 512 µM in data set [4]; 256 µM (≈ 314 µg/mL) in data set [5]; over 512 µM in data set [6]. Moreover, the “HC50 (concentration causing 50% haemolysis of the red blood cells)” value in the data set with horse red blood cells was over 512 µM.
